According to the NIST ThermoML archive (doi:10.1016/j.fluid.2008.04.016):
Several values for one entry are separate records, joined by “and”; a condition that tells them apart may be missing. Equal values may be shown once. ± gives the expanded uncertainty stated by the source.

Conditions: Liquid

CC(C)(C)c1cc(C(C)(C)C)cc(C(C)(C)C)c1 [1,3,5-tri-tert-butylbenzene]
Transpiration method
Conditions	vapor or sublimation pressure [kPa]
352.15 K	0.1311 ± 0.0066
354.45 K	0.1544 ± 0.0077
356.65 K	0.1766 ± 0.0088
358.95 K	0.2039 ± 0.01
359.15 K	0.2029 ± 0.01
361.35 K	0.2292 ± 0.011
362.05 K	0.2407 ± 0.012
363.45 K	0.2577 ± 0.013
365.15 K	0.2888 ± 0.014
367.45 K	0.3257 ± 0.016
370.15 K	0.3801 ± 0.019
372.65 K	0.4354 ± 0.022
374.95 K	0.4944 ± 0.025
377.35 K	0.5671 ± 0.028
379.55 K	0.6317 ± 0.032
382.65 K	0.7387 ± 0.037

CC(C)(C)c1ccc(C(C)(C)C)cc1 [1,4-bis(1,1-dimethylethyl)benzene]
Transpiration method
Conditions	vapor or sublimation pressure [kPa]
354.15 K	0.3792 ± 0.019
356.45 K	0.4257 ± 0.021
358.95 K	0.4877 ± 0.024
361.75 K	0.5742 ± 0.029
364.25 K	0.6537 ± 0.033
366.45 K	0.7231 ± 0.036
366.55 K	0.7158 ± 0.036
369.15 K	0.8057 ± 0.04
372.05 K	0.9399 ± 0.047
374.15 K	1.036 ± 0.052
376.45 K	1.171 ± 0.059
379.75 K	1.376 ± 0.069
381.75 K	1.507 ± 0.075
383.25 K	1.647 ± 0.082

Cc1cc(C(C)(C)C)cc(C(C)(C)C)c1 [3,5-di-tert-butyltoluene]
Transpiration method
Conditions	vapor or sublimation pressure [kPa]
308.25 K	0.01666 ± 0.00083
310.65 K	0.01931 ± 0.00097
313.35 K	0.02366 ± 0.0012
315.45 K	0.02884 ± 0.0014
317.95 K	0.03401 ± 0.0017
320.45 K	0.04037 ± 0.002
323.05 K	0.04906 ± 0.0024
325.55 K	0.05841 ± 0.0029
327.95 K	0.06909 ± 0.0035
330.55 K	0.08097 ± 0.004
333.05 K	0.09656 ± 0.0048
335.55 K	0.1131 ± 0.0057
338.15 K	0.1302 ± 0.0065
340.65 K	0.1549 ± 0.0077
343.05 K	0.1773 ± 0.0089
345.55 K	0.2067 ± 0.01
348.1 K	0.2475 ± 0.012
350.45 K	0.2845 ± 0.014
353.05 K	0.3277 ± 0.016
355.65 K	0.3743 ± 0.019
358.15 K	0.4358 ± 0.022

Conditions	vapor or sublimation pressure
379.62 K	1.318 ± 0.02 kPa
379.86 K	1.338 ± 0.02 kPa
380.13 K	1.358 ± 0.02 kPa
393.09 K	2.478 ± 0.021 kPa
393.16 K	2.483 ± 0.021 kPa
393.19 K	2.483 ± 0.021 kPa
393.25 K	2.488 ± 0.021 kPa
402.75 K	3.746 ± 0.021 kPa
402.76 K	3.746 ± 0.021 kPa
402.77 K	3.746 ± 0.021 kPa
410.74 K	5.173 ± 0.022 kPa
410.81 K	5.179 ± 0.022 kPa
410.83 K	5.184 ± 0.022 kPa
410.85 K	5.189 ± 0.022 kPa
428.47 K	10.05 ± 0.023 kPa
428.48 K	10.05 ± 0.023 kPa
439.99 K	14.94 ± 0.025 kPa
440 K	14.94 ± 0.025 kPa
449.13 K	20.06 ± 0.027 kPa and 20.07 ± 0.027 kPa
449.14 K	20.06 ± 0.027 kPa
449.15 K	20.07 ± 0.027 kPa
449.2 K	20.09 ± 0.027 kPa
449.21 K	20.09 ± 0.027 kPa
449.22 K	20.1 ± 0.027 kPa
456.12 K	24.89 ± 0.03 kPa
456.13 K	24.89 ± 0.03 kPa
456.14 K	24.89 ± 0.03 kPa
462.5 K	30.11 ± 0.032 kPa
462.52 K	30.11 ± 0.032 kPa
467.98 K	35.24 ± 0.034 kPa
472.54 K	40.02 ± 0.037 kPa
478.05 K	46.5 ± 0.039 kPa
478.06 K	46.5 ± 0.039 kPa
482.73 K	52.54 ± 0.043 kPa and 52.65 ± 0.043 kPa and 52.66 ± 0.043 kPa
482.76 K	52.69 ± 0.043 kPa
482.77 K	52.7 ± 0.043 kPa
487.56 K	59.65 ± 0.046 kPa
487.57 K	59.67 ± 0.046 kPa
487.58 K	59.69 ± 0.046 kPa
491.67 K	66.2 ± 0.049 kPa and 66.19 ± 0.049 kPa
491.68 K	66.21 ± 0.049 kPa
495.5 K	72.78 ± 0.052 kPa
495.53 K	72.83 ± 0.052 kPa
498.98 K	79.21 ± 0.055 kPa
498.99 K	79.22 ± 0.055 kPa
503.36 K	87.92 ± 0.058 kPa and 87.93 ± 0.058 kPa
505.71 K	92.91 ± 0.061 kPa
505.72 K	92.91 ± 0.061 kPa
508.06 K	98.13 ± 0.063 kPa
508.07 K	98.13 ± 0.063 kPa
508.08 K	98.17 ± 0.063 kPa
508.09 K	98.18 ± 0.063 kPa
509.38 K	101.13 ± 0.065 kPa and 101.14 ± 0.065 kPa and 101.15 ± 0.065 kPa
509.93 K	102.44 ± 0.065 kPa
509.94 K	102.45 ± 0.065 kPa
510.55 K	103.88 ± 0.066 kPa
510.56 K	103.87 ± 0.065 kPa and 103.88 ± 0.065 kPa

CC(c1ccccc1)C(C)(C)C (stereo unspecified) [(1,2,2-trimethylpropyl)benzene]
Transpiration method
Conditions	vapor or sublimation pressure [kPa]
296 K	0.04082 ± 0.0021
298.5 K	0.04885 ± 0.0025
301 K	0.05923 ± 0.003
303.5 K	0.07018 ± 0.0036
305.9 K	0.08326 ± 0.0042
308.4 K	0.09874 ± 0.005
310.9 K	0.1175 ± 0.006
313.4 K	0.1378 ± 0.007
315.9 K	0.1579 ± 0.008
318.3 K	0.185 ± 0.0094
320.8 K	0.2193 ± 0.011
323.3 K	0.2551 ± 0.013
325.8 K	0.292 ± 0.015
